Data as given in the NIST ThermoML archive (doi:10.1021/acs.jced.6b00350).
Values joined by “and” are separate entries in the source; they are usually repeats but may differ in a detail not shown here. Equal entries are not always repeated. Numbers after ± are expanded uncertainties.

Settings: Liquid, Hot wire method

FC(F)CC(F)(F)F [1,1,1,3,3-pentafluoropropane]
Settings	thermal conductivity
222.11 K, 10047 kPa	0.1156 ± 0.0015 W/m/K
222.11 K, 15756 kPa	0.117 ± 0.0015 W/m/K
222.12 K, 15761 kPa	0.1169 ± 0.0015 W/m/K
222.12 K, 21261 kPa	0.1184 ± 0.0015 W/m/K
222.12 K, 21267 kPa	0.1186 ± 0.0015 W/m/K
222.13 K, 27470 kPa	0.1201 ± 0.0015 W/m/K
222.13 K, 27478 kPa	0.1202 ± 0.0015 W/m/K
222.13 K, 33686 kPa	0.1212 ± 0.0015 W/m/K
222.16 K, 33712 kPa	0.1215 ± 0.0015 W/m/K
222.37 K, 39767 kPa	0.1235 ± 0.0016 W/m/K
222.37 K, 47190 kPa	0.1251 ± 0.0016 W/m/K
222.38 K, 39761 kPa	0.1235 ± 0.0016 W/m/K
222.38 K, 47197 kPa	0.125 ± 0.0016 W/m/K
222.38 K, 54316 kPa	0.1267 ± 0.0016 W/m/K
222.38 K, 54318 kPa	0.1267 ± 0.0016 W/m/K
222.38 K, 61389 kPa	0.1284 ± 0.0016 W/m/K
222.38 K, 67942 kPa	0.1297 ± 0.0016 W/m/K
222.39 K, 61385 kPa	0.1283 ± 0.0016 W/m/K
222.39 K, 67938 kPa	0.1298 ± 0.0016 W/m/K
222.5 K, 255 kPa	0.1121 ± 0.0014 W/m/K
222.5 K, 4863 kPa	0.1134 ± 0.0014 W/m/K
222.5 K, 4873 kPa	0.1134 ± 0.0014 W/m/K
222.51 K, 9999 kPa	0.1152 ± 0.0015 W/m/K
222.51 K, 10021 kPa	0.1152 ± 0.0015 W/m/K
222.51 K, 15761 kPa	0.1166 ± 0.0015 W/m/K
222.51 K, 15763 kPa	0.1166 ± 0.0015 W/m/K
222.51 K, 21262 kPa	0.1182 ± 0.0015 W/m/K
222.51 K, 21266 kPa	0.1185 ± 0.0015 W/m/K
222.51 K, 27487 kPa	0.12 ± 0.0015 W/m/K
222.52 K, 245 kPa	0.112 ± 0.0014 W/m/K
222.52 K, 27479 kPa	0.1198 ± 0.0015 W/m/K
222.52 K, 33833 kPa	0.1215 ± 0.0015 W/m/K
222.53 K, 33800 kPa	0.1213 ± 0.0015 W/m/K
222.77 K, 67930 kPa	0.1298 ± 0.0016 W/m/K
222.78 K, 39758 kPa	0.1234 ± 0.0016 W/m/K
222.78 K, 39765 kPa	0.1236 ± 0.0016 W/m/K
222.78 K, 47189 kPa	0.1249 ± 0.0016 W/m/K
222.78 K, 47193 kPa	0.125 ± 0.0016 W/m/K
222.78 K, 54318 kPa	0.1265 ± 0.0016 W/m/K
222.78 K, 54319 kPa	0.1266 ± 0.0016 W/m/K
222.78 K, 61395 kPa	0.1281 ± 0.0016 W/m/K
222.78 K, 61401 kPa	0.1282 ± 0.0016 W/m/K
222.78 K, 67928 kPa	0.1296 ± 0.0016 W/m/K
222.94 K, 4870 kPa	0.113 ± 0.0014 W/m/K
222.94 K, 10017 kPa	0.1147 ± 0.0015 W/m/K
222.94 K, 10023 kPa	0.1147 ± 0.0015 W/m/K
222.94 K, 15762 kPa	0.1162 ± 0.0015 W/m/K
222.94 K, 15767 kPa	0.1163 ± 0.0015 W/m/K
222.94 K, 21269 kPa	0.1181 ± 0.0015 W/m/K
222.94 K, 21277 kPa	0.118 ± 0.0015 W/m/K
222.94 K, 27478 kPa	0.1199 ± 0.0015 W/m/K
222.94 K, 27487 kPa	0.1197 ± 0.0015 W/m/K
222.94 K, 33837 kPa	0.1213 ± 0.0015 W/m/K
222.94 K, 33847 kPa	0.1213 ± 0.0015 W/m/K
222.95 K, 242 kPa	0.1115 ± 0.0014 W/m/K
222.95 K, 262 kPa	0.1116 ± 0.0014 W/m/K
222.95 K, 4862 kPa	0.113 ± 0.0014 W/m/K
223.19 K, 67923 kPa	0.1295 ± 0.0016 W/m/K
223.2 K, 61398 kPa	0.128 ± 0.0016 W/m/K
223.2 K, 67921 kPa	0.1295 ± 0.0016 W/m/K
223.21 K, 54306 kPa	0.1263 ± 0.0016 W/m/K
223.21 K, 61402 kPa	0.128 ± 0.0016 W/m/K
223.22 K, 39767 kPa	0.1231 ± 0.0016 W/m/K
223.22 K, 47186 kPa	0.1248 ± 0.0016 W/m/K
223.22 K, 47187 kPa	0.1248 ± 0.0016 W/m/K
223.22 K, 54313 kPa	0.1265 ± 0.0016 W/m/K
223.23 K, 39773 kPa	0.1231 ± 0.0016 W/m/K
223.38 K, 33868 kPa	0.1211 ± 0.0015 W/m/K
223.39 K, 33861 kPa	0.1211 ± 0.0015 W/m/K
223.4 K, 21286 kPa	0.1177 ± 0.0015 W/m/K
223.4 K, 27486 kPa	0.1196 ± 0.0015 W/m/K
223.4 K, 27487 kPa	0.1195 ± 0.0015 W/m/K
223.41 K, 15762 kPa	0.1159 ± 0.0015 W/m/K
223.41 K, 15769 kPa	0.1159 ± 0.0015 W/m/K
223.41 K, 21280 kPa	0.1178 ± 0.0015 W/m/K
223.42 K, 4862 kPa	0.1127 ± 0.0014 W/m/K
223.42 K, 4869 kPa	0.1127 ± 0.0014 W/m/K
223.42 K, 10011 kPa	0.1143 ± 0.0014 W/m/K
223.42 K, 10015 kPa	0.1145 ± 0.0014 W/m/K
223.43 K, 243 kPa	0.1111 ± 0.0014 W/m/K
223.43 K, 251 kPa	0.1111 ± 0.0014 W/m/K
223.65 K, 67907 kPa	0.1291 ± 0.0016 W/m/K
223.65 K, 67916 kPa	0.1294 ± 0.0016 W/m/K
223.66 K, 61399 kPa	0.1279 ± 0.0016 W/m/K
223.67 K, 61396 kPa	0.1278 ± 0.0016 W/m/K
223.68 K, 54302 kPa	0.1262 ± 0.0016 W/m/K
223.68 K, 54305 kPa	0.1261 ± 0.0016 W/m/K
223.69 K, 47183 kPa	0.1247 ± 0.0016 W/m/K
223.69 K, 47193 kPa	0.1247 ± 0.0016 W/m/K
223.7 K, 39777 kPa	0.123 ± 0.0016 W/m/K
223.71 K, 39772 kPa	0.1229 ± 0.0016 W/m/K
223.87 K, 33885 kPa	0.1209 ± 0.0015 W/m/K
223.88 K, 33873 kPa	0.1209 ± 0.0015 W/m/K
241.3 K, 9886 kPa	0.1092 ± 0.0014 W/m/K
241.3 K, 15301 kPa	0.1111 ± 0.0014 W/m/K
241.31 K, 9877 kPa	0.1094 ± 0.0014 W/m/K
241.32 K, 21013 kPa	0.1123 ± 0.0014 W/m/K
241.32 K, 21021 kPa	0.1121 ± 0.0014 W/m/K
241.33 K, 33388 kPa	0.115 ± 0.0015 W/m/K
241.34 K, 33390 kPa	0.1153 ± 0.0015 W/m/K
241.35 K, 26974 kPa	0.1134 ± 0.0014 W/m/K
241.35 K, 26975 kPa	0.1134 ± 0.0014 W/m/K
241.35 K, 46711 kPa	0.1187 ± 0.0015 W/m/K
241.35 K, 46714 kPa	0.1192 ± 0.0015 W/m/K
241.36 K, 39784 kPa	0.1173 ± 0.0015 W/m/K
241.37 K, 297 kPa	0.1065 ± 0.0014 W/m/K and 0.1069 ± 0.0014 W/m/K
241.37 K, 4974 kPa	0.1077 ± 0.0014 W/m/K
241.37 K, 39780 kPa	0.1174 ± 0.0015 W/m/K
241.38 K, 4982 kPa	0.1074 ± 0.0014 W/m/K
241.38 K, 53704 kPa	0.1209 ± 0.0015 W/m/K
241.38 K, 53707 kPa	0.1206 ± 0.0015 W/m/K
241.41 K, 61279 kPa	0.1222 ± 0.0015 W/m/K
241.43 K, 68711 kPa	0.1241 ± 0.0016 W/m/K
241.43 K, 68724 kPa	0.1238 ± 0.0016 W/m/K
241.68 K, 15290 kPa	0.1103 ± 0.0014 W/m/K
241.69 K, 9889 kPa	0.1088 ± 0.0014 W/m/K
241.69 K, 9892 kPa	0.1093 ± 0.0014 W/m/K
241.69 K, 15293 kPa	0.1107 ± 0.0014 W/m/K
241.69 K, 21027 kPa	0.1119 ± 0.0014 W/m/K
241.69 K, 21032 kPa	0.1126 ± 0.0014 W/m/K
241.7 K, 33378 kPa	0.1158 ± 0.0015 W/m/K
241.7 K, 33381 kPa	0.1154 ± 0.0015 W/m/K
241.7 K, 46707 kPa	0.1184 ± 0.0015 W/m/K
241.71 K, 26968 kPa	0.1137 ± 0.0014 W/m/K
241.71 K, 26981 kPa	0.1139 ± 0.0014 W/m/K
241.71 K, 46714 kPa	0.1189 ± 0.0015 W/m/K
241.72 K, 39777 kPa	0.117 ± 0.0015 W/m/K
241.73 K, 39791 kPa	0.1169 ± 0.0015 W/m/K
241.73 K, 53687 kPa	0.1208 ± 0.0015 W/m/K
241.73 K, 53704 kPa	0.1206 ± 0.0015 W/m/K
241.75 K, 61249 kPa	0.1223 ± 0.0015 W/m/K
241.75 K, 61272 kPa	0.1223 ± 0.0015 W/m/K
241.76 K, 296 kPa	0.1058 ± 0.0014 W/m/K
241.76 K, 303 kPa	0.1061 ± 0.0014 W/m/K
241.76 K, 4987 kPa	0.108 ± 0.0014 W/m/K
241.77 K, 4997 kPa	0.1079 ± 0.0014 W/m/K
241.77 K, 68669 kPa	0.1236 ± 0.0016 W/m/K
241.78 K, 68692 kPa	0.1241 ± 0.0016 W/m/K
